Experiment: in vitro
Settings: human, hela cells, % viability

Compound | viability at 28.5 h, 10 µM [%]
CSCC[C@H](NC(=O)c1cccc2c1-c1ccccc1C2=O)C(=O)O [CBK286781] | 95.5
CCOC(=O)c1sc(NS(=O)(=O)c2cccc3cccnc23)nc1C [CBK047443] | 91.6
CCOC(=O)C1CCN(S(=O)(=O)c2c(C)noc2C)CC1 [CBK051112] | 96.9
CCC(C)NC(=O)C1(Cc2cccc(-c3ccc(OC)cc3)c2)CCOCC1 (centres unmarked) [CBK286513] | 94.9
CCn1c2ccccc2c2cc(CN3CCN(Cc4c[nH]c5ccccc45)CC3)ccc21 [CBK263167] | 89.3
O=C(Nc1ccccc1O)c1cc(S(=O)(=O)N2CCCCCC2)ccc1Cl [CBK264554] | 89.1
CSc1ccc(NS(=O)(=O)c2ccc(NC(C)=O)c(Cl)c2)cc1 [CBK043566] | 108
O=C(O)CCc1ccc(S(=O)(=O)NCc2ccccc2)cc1 [CBK287054] | 79.8
Cc1nc2c(c(N3CCN(c4ccc(O)cc4)CC3)n1)CN(Cc1ccccc1)CC2 [CBK286177] | 90.2
CCSc1c(C)cnc2c1c(=O)n(C)c(=O)n2C [CBK287748] | 99.8
CCNc1nccnc1-c1ccncc1 [CBK088586] | 119
CCn1nc2c(c1C(=O)Nc1cccc(CCc3ccncc3)c1)CCCC2 [CBK285561] | 87.5
CCNC(=O)Nc1ncc(-c2ccsc2)c2cccnc12 [CBK070686] | 103
O=C(NC(=S)Nc1cccc2c(O)cccc12)c1ccc(-c2ccccc2)cc1 [CBK269022] | 85.3
CCNC(=O)N1CC2(CCN(CC(=O)c3ccsc3)CC2)c2ccccc21 [CBK144601T] | 88.6
CCN(CC)CCCNc1oc(-c2ccc(Cl)cc2)nc1C#N [CBK265746] | 126
COc1ccc(-n2nc3cc(C)c(NC(=S)NC(=O)/C=C/c4ccco4)cc3n2)cc1 [CBK264359] | 109
COc1cc(CNC(=O)N2CCN(C3CCN(C)CC3)CC2)cc(OC)c1OC [CBK155893] | 93.3
CCC(C)(C)c1ccc(S(=O)(=O)N2CCCN(Cc3c[nH]c(=O)[nH]c3=O)CC2)cc1 [CBK062881] | 91.8
COCOc1ccc(-c2nccnc2OCCc2cccs2)cc1 [CBK106911] | 106
CC(C)Cc1nc(Cn2cnc3c(cnn3C)c2=O)no1 [CBK306256] | 90.7
CCc1ccc(S(=O)(=O)N2CCN(C(c3ccccc3)c3ccccc3)CC2)cc1 [CBK093948] | 98.6

Compound | viability at 28.5 h, 10 µM [%]
FC(F)(F)c1ccnc(SCc2ccc(Cl)c(Cl)c2)n1 [CBK103723] | 85.6
COc1ccc(NC(=O)CC(CN(C)Cc2ccccc2)C(=O)O)cc1 (centres unmarked) [CBK286854] | 93.5
CC1(C)NC(=O)N(CC(O)COc2ccc([N+](=O)[O-])cc2)C1=O (centres unmarked) [CBK262840] | 98.8
O=C(O)c1cccnc1SC1CC(=O)N(c2ccc(F)cc2)C1=O (centres unmarked) [CBK265582] | 110
Cc1ncccc1COC(=O)Nc1cnc2ccccc2c1 [CBK200128] | 95.9
CCCC(=O)NCC(C)c1nsc(NS(=O)(=O)c2cccc(Cl)c2C)n1 (centres unmarked) [CBK200053] | 96
CN(C)CCCC(=O)N1CCN(c2ncccn2)CC1 [CBK144523] | 116
Cc1ccc(C(=O)COc2ccc(/C=C(\C#N)c3nc(-c4ccc5c(c4)OCO5)cs3)cc2)cc1 [CBK266778] | 101
Cc1cccc(C(=O)N2CCCCC2CN(C)C)c1 (centres unmarked) [CBK074171] | 81.7
COc1ccc(N2C(=O)CC(NNC(N)=O)C2=O)cc1 (centres unmarked) [CBK263080] | 92.1
CC(C)NC(=O)c1cc([C@H]2CC[C@H](CNC(=O)CN3CCCC3)CC2)nc2ccccc12 [CBK285861] | 85.7
Cc1ccccc1-c1ccc2n(c1=O)C[C@H]1C[C@@H]2CN(C(=O)CCC(=O)O)C1 [CBK289181] | 111
COc1ccc(-n2ncc3c2CC(C)(C)CC3N)cc1 (centres unmarked) [CBK306789] | 80
COC(=O)CCc1ccc(S(=O)(=O)N2CCCN(Cc3cccc(Cl)c3Cl)CC2)cc1 [CBK062988] | 93.5
COc1ccc2[nH]c(-c3cncn3CCCC(C)(C)CO)cc2c1 [CBK281778] | 90.9
Cc1[nH]c2ccc(F)cc2c1CC(=O)N(C)CCN(C)C [CBK282726] | 84.1
COC(=O)c1scc(NS(=O)(=O)c2ccc(Cl)cc2Cl)c1C(=O)OC [CBK026681] | 89.4
OCCNc1nc(Nc2ccc(O)cc2)nc2ccccc12 [CBK266606C] | 97.3
COCOc1ccc(-c2nc(-c3ccco3)cnc2N)cc1 [CBK064108] | 82.9
COc1cc(-c2ccc(Nc3cccnc3)nc2)cc(OC)c1OC [CBK037704] | 84.6
Cc1cc(COC(=O)N2CCC(CO)CC2)cc(C)n1 [CBK200152] | 91
O=C(Nc1ccccc1)c1cc2sccc2s1 [CBK057696] | 87.9

Compound | viability at 28.5 h, 10 µM [%]
O=C(NC1CCc2ccccc21)c1cnc(-c2ccc(Cl)cc2)c(-c2ccc(O)cc2)c1 (centres unmarked) [CBK036629] | 91
CC(=O)N1CCc2sccc2C1c1ccc(NCc2ccc(F)cc2F)cc1 (centres unmarked) [CBK286455] | 93.8
CC(=O)N1CCC2(C/C=C/C[C@H]3CN(CCO)CC[C@H]3NC(=O)CNC2=O)CC1 [CBK292139] | 92.8
Cc1cc(NC(=O)CCC2CCCCC2)nc2c1c(=O)oc1ccccc12 [CBK291125] | 111
CC(=O)Nc1ccc(S(=O)(=O)N2CCN(C(=O)COc3ccc(Br)cc3)CC2)cc1 [CBK264234] | 94.1
O=C(Cn1cccn1)NC(Cc1ccsc1)c1cccnc1 (centres unmarked) [CBK285396] | 97
O=C1N=C(NCc2ccccc2F)OC12CCN(Cc1ccccc1)CC2 [CBK115688] | 96.2
C[C@H](NC(=O)N1CCC2(CC1)NCCc1c2[nH]c2ccc(Cl)cc12)c1ccccc1 [CBK047046] | 90
CC1(OCc2ccccc2)SC(NC2CCCCCC2)=NC1=O (centres unmarked) [CBK105606] | 82.8
O=C(CN1C(=O)c2ccccc2C1=O)Nc1sc2c(c1C(=O)NCc1ccco1)CCCC2 [CBK265670] | 87.9
O=C(CC(NCCO)C(=O)O)Nc1cccc(C(F)(F)F)c1 (centres unmarked) [CBK267065] | 109
O=C1NCCN/C1=C\C(=O)c1ccc(Br)cc1 [CBK261427] | 90.2
FC(F)(F)c1nc2ccccc2nc1SCc1cccs1 [CBK103728] | 105
c1ccc(-c2cc(CC3(NCc4cccnc4)COC3)no2)nc1 [CBK289238] | 83.5
Cc1nc2c(c(=O)[nH]1)CCN(Cc1c(C)oc3ccccc13)C2 [CBK283994] | 87.8
O=[N+]([O-])c1cccc(/C=C/C=N/c2ccc3c(c2)S(=O)(=O)c2cc(/N=C/C=C/c4cccc([N+](=O)[O-])c4)ccc2-3)c1 [CBK261244] | 97.6
O=C(NCc1cccs1)C1(Cc2cccc(-c3ccc(F)c(F)c3)c2)CCOCC1 [CBK285569] | 93.2
COc1ccccc1N1CCN(C(=O)NCCc2c[nH]cn2)CC1 [CBK155369] | 98.8
O=C(c1ccc(O)cc1)c1ccc(C(=O)O)c(C(=O)O)c1 [CBK261075] | 105
CN(C)C(CNS(=O)(=O)c1ccc2[nH]c(=O)[nH]c(=O)c2c1)c1ccccc1Cl (centres unmarked) [CBK286385] | 86.7
c1ccc(Cn2cc(-c3nccnc3OC(c3ccccc3)c3ccccc3)cn2)cc1 [CBK107093] | 88.2
CCC(c1nc2ccccc2c(=O)n1CCCn1ccnc1)N1C(=O)c2ccccc2C1=O (centres unmarked) [CBK268560] | 107

Compound | viability at 28.5 h, 10 µM [%]
O=[N+]([O-])c1ccc(C2CNC(c3ccccc3O)O2)cc1 (centres unmarked) [CBK262298] | 94
CC(=O)NCCSc1nccc(C(F)(F)F)n1 [CBK105301] | 102
N#Cc1cccc(NC(=O)c2cccs2)c1 [CBK066855] | 96.2
O=S(=O)(c1ccc(F)cc1)N1CCCC1c1cccc(Cc2ccc(F)cc2)n1 (centres unmarked) [CBK286249] | 88
Cc1cccc(CCNC(=O)c2cccn(CC(=O)N(C)C3CCCCC3)c2=O)c1 [CBK286113] | 104
Cc1cc(C)n(CC(=O)NC(Cc2cccs2)c2nccs2)n1 (centres unmarked) [CBK284686] | 85.8
CS(=O)(=O)Nc1nccnc1OC1CCN(CCc2ccccc2)CC1 [CBK084279] | 98.3
Cc1ccc(S(=O)(=O)NC2CCC(C(=O)O)CC2)cc1 (centres unmarked) [CBK286929] | 96.4
O=C(NCc1ccc(N2CCCC2=O)cc1)c1cc(Br)ccc1O [CBK296614] | 91.2
COc1ccc(-c2ccccc2CC2(C(=O)NCc3cccs3)CCOCC2)cc1 [CBK286429] | 92.3
CC(C)CC(=O)NCCn1nc(-c2cccs2)oc1=O [CBK282342] | 114
COC(=O)CCSc1nc(C)nc2c1c(=O)n(C)c(=O)n2CC(C)C [CBK305891] | 82.7
COc1ccc(CCc2nc(C)cc(CN(C)C)c2O)cc1OC [CBK278320C] | 89
CCO[C@H]1COC[C@@H]1NC(=O)c1cccc2c1NCCC2 [CBK307113] | 94.9
CCc1nc2ccc(C(=O)NCCCN3CCCC3=O)cn2c1N(C)Cc1cccs1 [CBK145536] | 95
C=C(C)CNC(=O)c1ccc(C)nc1N1CCOCC1 [CBK076389] | 93.5
NC(=O)c1c(N)c(C(N)=S)n2c1CCC2 [CBK019270] | 98.1
COc1ccc(S(=O)(=O)N(CCc2ccccc2)CC(=O)O)cc1C [CBK268505] | 95
O=c1[nH]c(=O)c2cc(S(=O)(=O)NCC3(N4CCOCC4)CCCCC3)ccc2[nH]1 [CBK286390] | 105

Same assay, conditions: human, hela cells, % viability, bulk resorufin, single well

Compound | viability at 28.5 h, 10 µM [%]
COc1ccc(OC(=O)Cc2ccccc2)cc1 [CBK131826] | 117
Cc1cc(C=C2C(=O)NC(=O)NC2=O)c(C)n1C1CCCCC1 [CBK263426] | 93.6
O=C(N/N=C1/CN2CCC1CC2)c1cccc(O)c1 [CBK262188C] | 93.5
COc1ccc2c(c1)COC1(CCN(C(=O)Nc3ccc(N(C)C)cc3)CC1)O2 [CBK060753] | 98.8

Reference: publication PMC12040169 (PLOS Biology, 2025)
